Literature values as cited in patent US12018199B2, “Fire retardant and fire blocking composition for use in forest fires, and method of making same” (priority 2020, dated 2024).
Where two headings read alike, the source gives them in different places.

Conditions: in water

Which Solubility (0 °C) does the source give for NC(N)=O [Urea, urea] here?
The Solubility was 66.7 g/100 g of water.

What about the Solubility (20 °C) of the same compound?
Its Solubility is 108 g/100 g of water.

And the Solubility (40 °C)?
The Solubility was 167 g/100 g of water.

What about the Solubility (60 °C) of the same compound?
Its Solubility is 251 g/100 g of water.

What about the Solubility (80 °C) of the same compound?
Its Solubility is 400 g/100 g of water.

What about the Solubility (100 °C) of the same compound?
The Solubility was 733 g/100 g of water.
